Results published in ChEMBL document CHEMBL5528052, “Single Deletion Unmasks Hidden Anti-Gram-Negative Bacterial Activity of an Insect Defensin-Derived Peptide” (J Med Chem, 2024).
Active and inactive are the calls of the source. The calls are words filed in the database; no cut-off is given here. Bridge positions count the residues as written; N and C are the ends. Peptide text beside a SMILES is read from it.

What was measured:
[1] = system: Curtobacterium luteum; experiment: Antimicrobial activity against Curtobacterium luteum assessed as lethal concentration; assay type: functional
[2] = system: Lysinibacillus fusiformis; experiment: Antimicrobial activity against Lysinibacillus fusiformis assessed as lethal concentration; assay type: functional
[3] = system: Escherichia coli; experiment: Antimicrobial activity against Escherichia coli J23a at 1 nmol relative to control; assay type: functional, organism-based
[4] = system: Pseudomonas aeruginosa; experiment: Antimicrobial activity against Pseudomonas aeruginosa QT1 at 1 nmol relative to control; assay type: functional, organism-based
[5] = system: Staphylococcus aureus; experiment: Antimicrobial activity against methicillin-resistant Staphylococcus aureus P1386 at 1 nmol relative to control; assay type: functional, organism-based
[6] = system: Escherichia coli; experiment: Antimicrobial activity against Escherichia coli J16c at 1 nmol relative to control; assay type: functional, organism-based
[7] = system: Metarhizium robertsii; experiment: Antifungal activity against Metarhizium robertsii at 1 nmol relative to control; assay type: functional, organism-based
[8] = system: Aspergillus nidulans; experiment: Antifungal activity against Aspergillus nidulans A28 at 1 nmol relative to control; assay type: functional, organism-based
[9] = system: Escherichia coli; experiment: Antimicrobial activity against Escherichia coli DH5alpha at 1 nmol relative to control; assay type: functional, organism-based
[10] = system: Staphylococcus epidermidis; experiment: Antimicrobial activity against penicillin-resistant Staphylococcus epidermidis P1389 assessed as lethal concentration; assay type: functional
[11] = system: Bacillus subtilis; experiment: Antimicrobial activity against Bacillus subtilis CGMCC 1.2428 assessed as lethal concentration; assay type: functional
[12] = system: Pseudomonas aeruginosa; experiment: Antimicrobial activity against Pseudomonas aeruginosa 11082616 at 1 nmol relative to control; assay type: functional, organism-based
[13] = system: Komagataella pastoris; experiment: Antifungal activity against Pichia pastoris X33 at 1 nmol relative to control; assay type: functional, organism-based
[14] = system: Stenotrophomonas maltophilia; experiment: Antimicrobial activity against Stenotrophomonas maltophilia CGMCC 1.1788 at 1 nmol relative to control; assay type: functional, organism-based
[15] = system: Pseudomonas aeruginosa; experiment: Antimicrobial activity against Pseudomonas aeruginosa 11092304 at 1 nmol relative to control; assay type: functional, organism-based
[16] = system: Ralstonia solanacearum; experiment: Antimicrobial activity against Ralstonia solanacearum at 1 nmol relative to control; assay type: functional, organism-based
[17] = system: Escherichia coli; experiment: Antimicrobial activity against Escherichia coli G2b at 1 nmol relative to control; assay type: functional, organism-based
[18] = system: Pseudomonas aeruginosa; experiment: Antimicrobial activity against Pseudomonas aeruginosa 11092618 at 1 nmol relative to control; assay type: functional, organism-based
[19] = system: Pseudomonas aeruginosa; experiment: Antimicrobial activity against Pseudomonas aeruginosa O1 at 1 nmol relative to control; assay type: functional, organism-based
[20] = system: Escherichia coli; experiment: Antimicrobial activity against Escherichia coli J14b at 1 nmol relative to control; assay type: functional, organism-based
[21] = system: Aspergillus fumigatus; experiment: Antifungal activity against Aspergillus fumigatus YJ-407 at 1 nmol relative to control; assay type: functional, organism-based
[22] = system: Geotrichum candidum; experiment: Antifungal activity against Geotrichum candidum CCTCC AY 93038 at 1 nmol relative to control; assay type: functional, organism-based
[23] = system: Pseudomonas aeruginosa; experiment: Antimicrobial activity against Pseudomonas aeruginosa 374 at 1 nmol relative to control; assay type: functional, organism-based
[24] = system: Micrococcus luteus; experiment: Antimicrobial activity against Micrococcus luteus CGMCC 1.0290 assessed as lethal concentration; assay type: functional
[25] = system: Pseudomonas aeruginosa; experiment: Antimicrobial activity against Pseudomonas aeruginosa FRD1 at 1 nmol relative to control; assay type: functional, organism-based
[26] = system: Priestia megaterium; experiment: Antimicrobial activity against Bacillus megaterium CGMCC 1.0459 assessed as lethal concentration; assay type: functional
[27] = system: Escherichia coli; experiment: Antimicrobial activity against Escherichia coli J45b at 1 nmol relative to control; assay type: functional, organism-based
[28] = system: Streptococcus sanguinis; experiment: Antimicrobial activity against Streptococcus sanguinis ATCC 1.2497 assessed as lethal concentration; assay type: functional
[29] = system: Staphylococcus warneri; experiment: Antimicrobial activity against Staphylococcus warneri ATCC 1.2824 at 1 nmol relative to control; assay type: functional, organism-based
[30] = Retention time of the compound by RP-HPLC analysis; assay type: physicochemical
[31] = system: Staphylococcus aureus; experiment: Antimicrobial activity against methicillin-resistant Staphylococcus aureus P1374 assessed as lethal concentration; assay type: functional
[32] = system: Salmonella enterica; experiment: Antimicrobial activity against Salmonella enterica ATCC 14028 at 1 nmol relative to control; assay type: functional, organism-based
[33] = system: Pseudomonas aeruginosa; experiment: Antimicrobial activity against Pseudomonas aeruginosa at 1 nmol relative to control; assay type: functional, organism-based
[34] = system: Aspergillus flavus; experiment: Antifungal activity against Aspergillus flavus at 1 nmol relative to control; assay type: functional, organism-based
[35] = system: Staphylococcus aureus; experiment: Antimicrobial activity against Staphylococcus aureus J685 assessed as lethal concentration; assay type: functional
[36] = system: Staphylococcus aureus; experiment: Antimicrobial activity against Staphylococcus aureus J685 at 1 nmol relative to control; assay type: functional, organism-based
[37] = system: Pseudomonas aeruginosa; experiment: Antimicrobial activity against Pseudomonas aeruginosa 11082603 at 1 nmol relative to control; assay type: functional, organism-based
[38] = system: Aspergillus niger; experiment: Antifungal activity against Aspergillus niger at 1 nmol relative to control; assay type: functional, organism-based
[39] = system: Alcaligenes faecalis; experiment: Antimicrobial activity against Alcaligenes faecalis CGMCC 1.1837 at 1 nmol relative to control; assay type: functional, organism-based
[40] = system: Beauveria bassiana; experiment: Antifungal activity against Beauveria bassiana 252 at 1 nmol relative to control; assay type: functional, organism-based
[41] = system: Streptococcus salivarius; experiment: Antimicrobial activity against Streptococcus salivarius ATCC 1.2498 at 1 nmol relative to control; assay type: functional, organism-based
[42] = system: Staphylococcus; experiment: Antimicrobial activity against methicillin-resistant coagulase negative Staphylococcus P1369 assessed as lethal concentration; assay type: functional
[43] = system: Pseudomonas aeruginosa; experiment: Antimicrobial activity against Pseudomonas aeruginosa DH at 1 nmol relative to control; assay type: functional, organism-based
[44] = system: Bacillus subtilis; experiment: Antimicrobial activity against Bacillus subtilis CGMCC 1.2428 at 1 nmol relative to control; assay type: functional, organism-based
[45] = system: Staphylococcus epidermidis; experiment: Antimicrobial activity against penicillin-resistant Staphylococcus epidermidis P1389 at 1 nmol relative to control; assay type: functional, organism-based
[46] = system: Streptococcus mutans; experiment: Antimicrobial activity against Streptococcus mutans ATCC 1.2499 at 1 nmol relative to control; assay type: functional, organism-based
[47] = system: Staphylococcus aureus; experiment: Antimicrobial activity against penicillin-resistant Staphylococcus aureus P1383 at 1 nmol relative to control; assay type: functional, organism-based
[48] = system: Streptococcus sanguinis; experiment: Antimicrobial activity against Streptococcus sanguinis ATCC 1.2497 at 1 nmol relative to control; assay type: functional, organism-based
[49] = system: Staphylococcus aureus; experiment: Antimicrobial activity against methicillin-resistant Staphylococcus aureus P1374 at 1 nmol relative to control; assay type: functional, organism-based
[50] = system: Salmonella enterica; experiment: Antimicrobial activity against Salmonella enterica ATCC 14028 at 0.25 to 1 nmol; assay type: functional, organism-based; settings: dose 0.25-1 nmol
[51] = system: Lysinibacillus fusiformis; experiment: Antimicrobial activity against Lysinibacillus fusiformis at 1 nmol relative to control; assay type: functional, organism-based
[52] = system: Erythrocyte; experiment: Hemolytic activity in mouse erythrocytes assessed as hemolysis at 100 uM; assay type: toxicity, cell-based

## CC[C@H](C)[C@H](NC(=O)[C@H](C)NC(=O)[C@H](CCCCN)NC(=O)[C@H](CC(N)=O)NC(=O)[C@H](CC(N)=O)NC(=O)[C@H](CS)NC(=O)[C@H](Cc1ccc(O)cc1)NC(=O)[C@H](CS)NC(=O)[C@@H](NC(=O)[C@H](C)N)[C@@H](C)O)C(=O)N[C@@H](CS)C(=O)N[C@H](C(=O)N[C@H](CS)C(=O)N[C@H](CCCNC(=N)N)C(=O)N[C@H](CCCNC(=N)N)C(N)=O)C(C)C
[1]
  LD: 0.13 µM
[2]
  LD: 5.35 µM
[3]
  Activity: inactive
[4]
  Activity: inactive
[5]
  Activity: inactive
[6]
  Activity: inactive
[7]
  Activity: inactive
[8]
  Activity: inactive
[9]
  Activity: inactive
[10]
  LD: 4.1 µM
[11]
  LD: 3.54 µM
[12]
  Activity: inactive
[13]
  Activity: inactive
[14]
  Activity: inactive
[15]
  Activity: inactive
[16]
  Activity: inactive
[17]
  Activity: inactive
[18]
  Activity: inactive
[19]
  Activity: inactive
[20]
  Activity: inactive
[21]
  Activity: inactive
[22]
  Activity: inactive
[23]
  Activity: inactive
[24]
  LD: 1.96 µM
[25]
  Activity: inactive
[26]
  LD: 2.44 µM
[27]
  Activity: inactive
[28]
  LD: 10.4 µM
[29]
  Activity: inactive
[30]
  Retention_time: 15.2 min
[31]
  LD: 14.29 µM
[32]
  Activity: inactive
[33]
  Activity: inactive
[34]
  Activity: inactive
[35]
  LD: 8.34 µM
[36]
  Activity: inactive
[37]
  Activity: inactive
[38]
  Activity: inactive
[39]
  Activity: inactive
[40]
  Activity: inactive
[41]
  Activity: inactive
[42]
  LD: 4.31 µM
[43]
  Activity: inactive

## CC[C@H](C)[C@@H]1NC(=O)[C@H](CCCCN)NC(=O)[C@H](CC(N)=O)NC(=O)[C@H](CC(N)=O)NC(=O)[C@@H]2CSSC[C@H](NC1=O)C(=O)N[C@@H](C(C)C)C(=O)N[C@H](C(=O)N[C@@H](CCCNC(=N)N)C(=O)N[C@@H](CCCNC(=N)N)C(=O)O)CSSC[C@H](NC(=O)[C@@H](NC(=O)[C@H](C)N)[C@@H](C)O)C(=O)N[C@@H](Cc1ccc(O)cc1)C(=O)N2 (H-ATCYCNNKICVCRR-OH; disulfide 3-12, 5-10)
[44]
  Activity: inactive
[1]
  LD: 4.3 µM
[45]
  Activity: inactive
[3]
  Activity: inactive
[4]
  Activity: inactive
[5]
  Activity: inactive
[6]
  Activity: inactive
[7]
  Activity: inactive
[8]
  Activity: inactive
[9]
  Activity: inactive
[46]
  Activity: inactive
[47]
  Activity: inactive
[12]
  Activity: inactive
[13]
  Activity: inactive
[14]
  Activity: inactive
[15]
  Activity: inactive
[16]
  Activity: inactive
[48]
  Activity: inactive
[17]
  Activity: inactive
[18]
  Activity: inactive
[19]
  Activity: inactive
[20]
  Activity: inactive
[21]
  Activity: inactive
[22]
  Activity: inactive
[23]
  Activity: inactive
[24]
  LD: 3.52 µM
[25]
  Activity: inactive
[26]
  LD: 2.58 µM
[49]
  Activity: inactive
[27]
  Activity: inactive
[29]
  Activity: inactive
[50]
  Activity: inactive
[30]
  Retention_time: 16 min
[32]
  Activity: inactive
[33]
  Activity: inactive
[34]
  Activity: inactive
[36]
  Activity: inactive
[37]
  Activity: inactive
[38]
  Activity: inactive
[39]
  Activity: inactive
[40]
  Activity: inactive
[51]
  Activity: inactive
[41]
  Activity: inactive
[42]
  LD: 5.3 µM
[43]
  Activity: inactive

## H-FFGHLFKLATKIIPSLFQ-OH
[52]
  Activity: Non-Toxic
